Reference: PMC5084761, “Crisaborole Topical Ointment, 2% in Patients Ages 2 to 17 Years with Atopic Dermatitis: A Phase 1b, Open‐Label, Maximal‐Use Systemic Exposure Study” (Pediatric Dermatology, 2016)
Where two headings read alike, the source gives them in different places. Values belong to the compound of their own block, whether it stands above or below them.

How the values were obtained:
[1] = in vivo
Description: (§1) This was a phase 1b, multicenter, open‐label, maximal‐use study of crisaborole topical ointment, 2% applied twice daily (BID). The study included a PK and safety phase (dose application in clinic from day 1 through the morning dose on day 9) and a non‐PK safety phase (at‐home dose application from the evening dose on day 9 through day 28). […] The primary objective was to evaluate the systemic exposure, PK, and safety of crisaborole topical ointment, 2% when applied under maximal‐use conditions in children and adolescents 2 to 17 years of age.
(§2) Crisaborole topical ointment, 2% was applied BID to all treatable AD‐affected areas at an intended dose of 3 mg/cm^2. The per‐application dosage was calculated in grams at baseline for each patient based on total body surface area (BSA) and treatable percentage of BSA (percentage of AD‐involved skin excluding scalp and venous access areas). During the PK phase, the per‐application dosage remained fixed at the baseline level and was applied BID, with the evening application occurring 8 to 12 hours after the morning application.
(§3) The primary study endpoints were PK and safety of crisaborole topical ointment, 2% under maximal‐use conditions. PK profiles were developed for crisaborole and its major oxidative metabolites AN7602 and AN8323 based on plasma samples obtained on days 1 and 8. Calculated PK parameters included area under the curve (AUC), maximum plasma concentration (C max), time to C max (T max), and terminal half‐life (t 1/2), assessed on days 1 and 8.
(§4) Plasma PK samples were evaluated for crisaborole, AN7602, and AN8323 using a validated high‐performance liquid chromatography tandem mass spectrometry assay and analyzed using analysis of variance (ANOVA). Descriptive PK parameters were determined using standard noncompartmental methods based on concentration‐versus‐time curves for each patient.
(§5) If no statistically significant differences were observed using this model, the PK analysis was performed for all study patients.

[2] = Plasma pharmacokinetics after topical application of crisaborole topical ointment, 2% BID under maximal-use conditions (HPLC tandem mass spectrometry, noncompartmental); details: for Cmax: 3 mg/cm^2, C max
Description: as §1, §2, §3, §4, §5

[3] = test system: children and adolescents with mild to moderate AD; assay: Efficacy: ISGA, treatment success, AD signs and symptoms, treatable percentage of BSA; assay type: in vivo, human (patients ages 2 to 17 years); details: for Percentage change from baseline in treatable percentage of BSA, mean ± SD: after 4 wks
Protocol: Secondary assessments included treatment success, defined as an Investigator Static Global Assessment (ISGA) score of 1 or less (clear or almost clear) with a two‐grade improvement or more from baseline. The proportion of patients achieving an ISGA of 0 (clear) or 1 (almost clear) was also assessed. Improvement from baseline in AD signs and symptoms of erythema, excoriation, exudation, lichenification, and pruritus was evaluated using a 4‐point scale ranging from 0 (none) to 3 (severe). Efficacy assessments were conducted at baseline and days 5, 8, 15, 22, and 29. Change from baseline in treatable percentage of BSA was assessed at day 29 and included all AD lesions identified at baseline.

systemic exposure (in words) [1]: minimal
SMILES: N#Cc1ccc(Oc2ccc(O)c(CO)c2)cc1 [AN7602]

Tmax ([2]; human, plasma, topical, 3 mg/cm^2): 3 h
AUC(0-t) ([2]; human, plasma, topical, 3 mg/cm^2, AUC0–12, mean ± SD, plasma, day 1, all patients (n = 32)): 759 ± 730 ng·h/mL
AUC(0-t) ([2]; human, plasma, topical, 3 mg/cm^2, AUC0–12, mean ± SD, plasma, day 8, all patients (n = 32)): 949 ± 1240 ng·h/mL
AUC(0-t) ([2]; human, plasma, topical, 3 mg/cm^2, AUC0–24, mean ± SD, plasma, day 1, all patients (n = 29)): 833 ± 694 ng·h/mL
AUC(0-t) ([2]; human, plasma, topical, 3 mg/cm^2, AUC0–24, mean ± SD, plasma, day 8, all patients (n = 32)): 1320 ± 1330 ng·h/mL
AUC(0-t) ([2]; human, plasma, topical, 3 mg/cm^2, AUC0–T, mean ± SD, plasma, day 1, all patients (n = 34)): 863 ± 759 ng·h/mL
AUC(0-t) ([2]; human, plasma, topical, 3 mg/cm^2, AUC0–T, mean ± SD, plasma, day 8, all patients (n = 33)): 1320 ± 1310 ng·h/mL
Cmax ([2]; human, plasma, topical, mean ± SD, plasma, day 1, all patients (n = 34)): 111 ± 113 ng/mL
Cmax ([2]; human, plasma, topical, mean ± SD, plasma, day 8, all patients (n = 33)): 127 ± 196 ng/mL
systemic exposure (in words) ([2]; maximal-use conditions, increased with treatable percentage of BSA): minimal
systemic accumulation in plasma (in words) ([2]; over 8 days of dosing): minimal systemic accumulation
time by which steady state was reached ([2]; plasma, BID dosing): ≤ 8 days
T max, median (range) ([2]; plasma, day 1, all patients (n = 34), ointment 2% at 3 mg/cm^2): 3.00 (3–12) hours
SMILES: N#Cc1ccc(Oc2ccc3c(c2)COB3O)cc1 [Crisaborole, crisaborole]
Percentage change from baseline in treatable percentage of BSA, mean ± SD ([3]; cohort 1): −86.6 ± 18.6 percentage
Percentage change from baseline in treatable percentage of BSA, mean ± SD ([3]; cohort 2): −72.8 ± 24.4 percentage
Percentage change from baseline in treatable percentage of BSA, mean ± SD ([3]; cohort 3): −73.0 ± 21.7 percentage
Percentage change from baseline in treatable percentage of BSA, mean ± SD ([3]; total (N = 34)): −77.7 ± 22.1 percentage
Day 29 treatable percentage of BSA, mean ± SD (range) ([3]; cohort 1, ages 12–17 yrs (n = 12), baseline 35.8 ± 11.3): 5.7 ± 8.6 (0–29) percentage of BSA
Day 29 treatable percentage of BSA, mean ± SD (range) ([3]; cohort 2, ages 6–11 yrs (n = 12), baseline 54.9 ± 19.3): 16.3 ± 14.5 (0–40) percentage of BSA
Day 29 treatable percentage of BSA, mean ± SD (range) ([3]; cohort 3, ages 2–5 yrs (n = 10), baseline 56.9 ± 23.0): 18.6 ± 18.1 (0–46) percentage of BSA
reduction of the mean percentage of skin with AD lesions ([3]; overall, as summarised in discussion): ~ 75%
Day 29 treatable percentage of BSA, mean ± SD (range) ([3]; total (N = 34), baseline 48.7 ± 20.2): 13.2 ± 14.7 (0–46) percentage of BSA
